One assay concerns S. enteridis ATCC13076. Put plainly: Serial microdilution assay (MIC). The class given is cell-based, Salmonella Enteritidis. The method, then: (§1) […]. […] Four types of gram-positive bacterial strains (St. pyogenez, B. subtilis, B. cereus, S. aureus) and five types of the gram-negative (S. enteridis, E. aerogenes, P. aeruginosa, E. coli, and S. gallinarum) were sensitive to 4 and 1. […]. The minimal inhibitory concentration value was studied for the microorganism cells, which evaluated to sensitive the substances and they tested in the disc-diffusion method. Inoculate of microorganism was prepared utilizing 12 h suspensions and broth cultures were adjusted to 0.5 McFarland turbidity standard. Each substance was dissolved in 10% dimethyl sulfoxide which diluted to the highest concentration (1000 µg/mL) for testing. […]. Also, prepared suspensions for standard microorganisms were added to each dilution in a 1:1 ratio. Growth act of microorganism cells was determined visually after incubation at 36 °C. The minimum concentration was no visible growth which was taken as the MIC.

In a further assay the test system is B. cereus DSM 4312. Put plainly: Serial microdilution assay (MIC). The assay is classed as cell-based, Bacillus Cereus. The method, then: as §1
In another assay the test system is E. aerogenes ATCC2924. Put plainly: Serial microdilution assay (MIC). The class given is cell-based, Enterobacter Aerogenes. The method, then:
as §1

Another assay deals with S. gallinarum. Put plainly: Serial microdilution assay (MIC). The assay is classed as cell-based, Salmonella Gallinarum. The method, then:
as §1

In the next assay the test system is E. coli 111. Put plainly: Serial microdilution assay (MIC). The assay is classed as cell-based, Escherichia coli. How it is done:
as §1

Assay [1] relates to bacterial strains (four gram-positive, five gram-negative). Put plainly: Serial microdilution assay (MIC), range over the bacterial strains. The assay is classed as cell-based. The method, then:
as §1

A further assay concerns S. aureus ATCC29213. Put plainly: Serial microdilution assay (MIC). The assay is classed as cell-based, Staphylococcus aureus. The method, then: as §1
The test system of assay [2] is bacterial strains (four gram-positive, five gram-negative). Put plainly: Disc diffusion assay, range over the bacterial strains. The assay is classed as cell-based. How it is done: […]. […] Four types of gram-positive bacterial strains (St. pyogenez, B. subtilis, B. cereus, S. aureus) and five types of the gram-negative (S. enteridis, E. aerogenes, P. aeruginosa, E. coli, and S. gallinarum) were sensitive to 4 and 1. […]. In this study, 10 microbial cultures of this part, belonging to ten types of bacterial were used. The culture was grown in Mueller–Hinton Broth (Merck) for all the bacterial strains at 36 °C. Antimicrobial test was carried out by using disc-diffusion assay utilizing 100 µL of suspension with 10^8 CFU/mL of bacteria and 10^6 CFU/mL of yeast spread on Nutrient Agar and Potato Dextrose Agar, respectively. Also, the blank disc (Oxoid = 6 mm in diameter) was impregnated with 20 µL of each substance (105 µg/disc) and placed on the inoculated agar. Negative controls ([…]) were prepared using the same solvent (water) employed to dissolve each substance. […]. The inoculated plate was incubated at 36 °C for clinical bacterial strains. Antimicrobial activities were evaluated by obtaining the zone of inhibitory effect against the test organisms.

The test system of the next assay is St. pyogenez ATCC176. Put plainly: Serial microdilution assay (MIC). The class given is cell-based, Steptococcus Pyogerez. How it is done: as §1
In another assay the test system is B. subtilis ATCC6633. Put plainly: Serial microdilution assay (MIC). The assay is classed as cell-based, Bacillus Subtilis. The method, then:
as §1

Another assay concerns P. aeruginosa ATCC9027. Put plainly: Serial microdilution assay (MIC). The class given is cell-based, Pseudomonas Aureginosa. How it is done:
as §1

Results on one substance are retold here after publication PMC7385626 (Scientific Reports, 2020).

For “[Cd(N-bishydeten)]4[Ag(CN)2]8[Ag(CN)]2 [Complex 4]”, the “Minimum-inhibitory concentrations (MIC), S. enteridis ATCC13076” value with S. enteridis ATCC13076 is 62.50 ± 0.14 µg/mL. In the assay on B. cereus DSM 4312, the “Minimum-inhibitory concentrations (MIC), B. cereus DSM 4312” value was 62.50 ± 18.04 µg/mL. Moreover, in the assay with E. aerogenes ATCC2924, the “Minimum-inhibitory concentrations (MIC), E. aerogenes ATCC2924” value was 125 ± 53.40 µg/mL. In the assay on S. gallinarum, the “Minimum-inhibitory concentrations (MIC), S. gallinarum” value is on record as 125 ± 0.0 µg/mL. The “Minimum-inhibitory concentrations (MIC), E. coli 111” value in the assay with E. coli 111 stood at 31.25 ± 0.0 µg/mL. In assay [1], the “MIC, joint range for 4 and 1 over the strains” value lay within 15.62 to 125 µg/mL; the “MIC, range over the bacterial strains” value was 31.25 to 125 µg/mL. Moreover, the “Minimum-inhibitory concentrations (MIC), S. aureus ATCC29213” value with S. aureus ATCC29213 stood at 62.50 ± 0.0 µg/mL. In addition, the “inhibition zones, range over the bacterial strains” value in assay [2] is on record as 25–37 mm. Besides, the “Minimum-inhibitory concentrations (MIC), St. pyogenez ATCC176” value in the assay with St. pyogenez ATCC176 was 31.25 ± 9.02 µg/mL. Besides, the “Minimum-inhibitory concentrations (MIC), B. subtilis ATCC6633” value in the assay with B. subtilis ATCC6633 amounted to 31.25 ± 0.0 µg/mL. In addition, the “Minimum-inhibitory concentrations (MIC), P. aeruginosa ATCC9027” value with P. aeruginosa ATCC9027 turned out to be 62.50 ± 0.0 µg/mL.
